ChEMBL document CHEMBL1201862, “PubChem BioAssay data set” (2004)
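Interpolation was linear, between the two tested concentrations surrounding the appropriate level; five concentrations were tested over 48 hours in 96-well plates. The concentration for 50% growth inhibition is given as GI50.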 Activity calls are given as the source filed them. Cut-off read from the data, not from the text of the source: active = GI50 up to about 1.1 µM and inactive = higher. Starred links: 1 amine or outer side, 2 acyl side, 3 side chain; linkers in the order of their positions; H or OH if unused. Non-standard residues stand in square brackets, D forms with d. Residues, ends and D or L forms follow the SMILES beside them. ξ: configuration not given here. X24 = O=C(C(CC(O)CO)O[*:1])[*:2]; Ile(3ξ) = CCC(C)[C@H](N)C(=O)O; NMeV = CN[C@H](C(=O)O)C(C)C; NMeA = CN[C@@H](C)C(=O)O; βAla = NCCC(=O)O

Experiments:
Assay in all cases: NCI tumour cell line growth inhibition, 48 h
CAKI-1 = tested on: CAKI-1
CCRF-CEM = tested on: CCRF-CEM
HCT-15 = tested on: HCT-15
HL-60 = tested on: HL-60
HOP-62 = tested on: HOP-62
HT-29 = tested on: HT-29
K562 = tested on: K562
LOX IMVI = tested on: LOX IMVI
NCI-H522 = tested on: NCI-H522
RPMI-8226 = tested on: RPMI-8226
SF-268 = tested on: SF-268
SK-MEL-28 = tested on: SK-MEL-28
SR = tested on: SR
SW-620 = tested on: SW-620
U-251 = tested on: U-251
UO-31 = tested on: UO-31

SMILES	GI50 (CAKI-1)	GI50 (CCRF-CEM)	GI50 (HCT-15)	GI50 (HL-60)	GI50 (HOP-62)	GI50 (HT-29)	GI50 (K562)	GI50 (LOX IMVI)	GI50 (NCI-H522)	GI50 (RPMI-8226)	GI50 (SF-268)	GI50 (SK-MEL-28)	GI50 (SR)	GI50 (SW-620)	GI50 (U-251)	GI50 (UO-31)
CN(C)CCc1ccc(Cl)cc1Cl	> 100 µM (inactive)	> 100 µM (inactive)	> 100 µM	> 100 µM (inactive)	> 100 µM (inactive)	> 100 µM (inactive)	> 100 µM (inactive)	> 100 µM (inactive)	> 100 µM (inactive)	> 100 µM (inactive)	> 100 µM (inactive)	> 100 µM (inactive)	> 100 µM (inactive)	> 100 µM (inactive)	> 100 µM (inactive)	> 100 µM (inactive)
O=C(O)c1c2c(cc3c(=O)cc(-c4ccccc4)oc13)CCCC2		> 100 µM (inactive)	> 100 µM		> 100 µM (inactive)	> 100 µM (inactive)	> 100 µM (inactive)	> 100 µM (inactive)	71.4 µM (inactive)	> 100 µM (inactive)	> 100 µM (inactive)	> 100 µM (inactive)		> 100 µM (inactive)	> 100 µM (inactive)	> 100 µM (inactive)
Cc1cc(Cl)ccc1NC(=O)C1C(=O)C(=O)N(c2ccc(Cl)cc2C)C1=O (stereo unspecified)	> 100 µM (inactive)	55.6 µM (inactive)	57.5 µM	> 100 µM (inactive)	> 100 µM (inactive)	96.2 µM (inactive)	40.6 µM (inactive)	> 100 µM (inactive)	60.3 µM (inactive)	29 µM (inactive)	53 µM (inactive)	> 100 µM (inactive)		> 100 µM (inactive)	57.3 µM (inactive)	75.7 µM (inactive)
COc1cc(C)c(C(=O)/C=C/c2cc(OC)c(O)c(OC)c2)cc1O	26.4 µM (inactive)	12.5 µM (inactive)		22.1 µM (inactive)	22.7 µM (inactive)	30.6 µM (inactive)	19.4 µM (inactive)	19.5 µM (inactive)	18.1 µM (inactive)	> 100 µM (inactive)	23.9 µM (inactive)	18.6 µM (inactive)		26.4 µM (inactive)	19.6 µM (inactive)	23 µM (inactive)
CCOC1=CP(=O)(OCC)CC(C)=C1Cl (stereo unspecified)	> 100 µM (inactive)	> 100 µM (inactive)		> 100 µM (inactive)	> 100 µM (inactive)	> 100 µM (inactive)	> 100 µM (inactive)	> 100 µM (inactive)	> 100 µM (inactive)	> 100 µM (inactive)	> 100 µM (inactive)	> 100 µM (inactive)	> 100 µM (inactive)	> 100 µM (inactive)	> 100 µM (inactive)	> 100 µM (inactive)
C=CCOC1CC(n2cnc3c(N)ncnc32)OC1CO (stereo unspecified)	> 100 µM (inactive)	> 100 µM (inactive)	> 100 µM	> 100 µM (inactive)	> 100 µM (inactive)	> 100 µM (inactive)	> 100 µM (inactive)		> 100 µM (inactive)	> 100 µM (inactive)	> 100 µM (inactive)	> 100 µM (inactive)	> 100 µM (inactive)	> 100 µM (inactive)	> 100 µM (inactive)	> 100 µM (inactive)
O=C(O)COc1ccc(O)c2c1C(=O)CCCC2=O	> 100 µM (inactive)	> 100 µM (inactive)	> 100 µM	> 100 µM (inactive)	> 100 µM (inactive)	> 100 µM (inactive)	> 100 µM (inactive)	> 100 µM (inactive)	> 100 µM (inactive)	> 100 µM (inactive)	> 100 µM (inactive)	> 100 µM (inactive)		> 100 µM (inactive)	> 100 µM (inactive)	> 100 µM (inactive)
O=C1NC2C=CN(Cc3ccccc3)C=C2C(=O)N2CCCC12 (stereo unspecified)	> 100 µM (inactive)	> 100 µM (inactive)	> 100 µM	> 100 µM (inactive)	> 100 µM (inactive)	> 100 µM (inactive)			> 100 µM (inactive)		> 100 µM (inactive)	> 100 µM (inactive)	> 100 µM (inactive)	> 100 µM (inactive)	> 100 µM (inactive)	> 100 µM (inactive)
CCCCCCCC(=O)OCC(COC(=O)C(C)(C)C)OC(=O)Cc1ccccc1 (stereo unspecified)	> 100 µM (inactive)	> 100 µM (inactive)	> 100 µM	> 100 µM (inactive)	> 100 µM (inactive)		> 100 µM (inactive)	> 100 µM (inactive)		> 100 µM (inactive)	> 100 µM (inactive)	> 100 µM (inactive)		> 100 µM (inactive)	> 100 µM (inactive)	> 100 µM (inactive)
CCOc1ccc2c(c1)[n+]([O-])c(-c1ccccc1Cl)c(N)[n+]2[O-]	> 100 µM (inactive)	48.2 µM (inactive)		56.5 µM (inactive)	> 100 µM (inactive)	> 100 µM (inactive)	> 100 µM (inactive)		17.4 µM (inactive)		> 100 µM (inactive)	> 100 µM (inactive)	94 µM (inactive)	> 100 µM (inactive)	> 100 µM (inactive)	> 100 µM (inactive)
C=C1c2ccccc2N(S(=O)(=O)c2ccc(C)cc2)C12CCCCC2		25.2 µM (inactive)	> 100 µM	19.8 µM (inactive)	> 100 µM (inactive)	52.4 µM (inactive)	29 µM (inactive)	36.6 µM (inactive)	34.8 µM (inactive)	24.4 µM (inactive)	63 µM (inactive)	45.2 µM (inactive)	13.1 µM (inactive)	59.3 µM (inactive)	94.6 µM (inactive)	> 100 µM (inactive)
COc1cc(C2C(C(=O)O)=C(COC(C)=O)Oc3cc4c(cc32)OCO4)cc(OC)c1OC(C)=O (stereo unspecified)	> 100 µM (inactive)	> 100 µM (inactive)	> 100 µM	> 100 µM (inactive)	> 100 µM (inactive)	> 100 µM (inactive)	> 100 µM (inactive)	> 100 µM (inactive)		> 100 µM (inactive)		> 100 µM (inactive)		> 100 µM (inactive)	> 100 µM (inactive)	> 100 µM (inactive)
COc1c2c(c3c(c1C1OC(C)[C@@H](C)O1)CC(C)(C)O3)C(=O)c1ccccc1C2=O (stereo partly specified)	40.2 µM (inactive)	20.8 µM (inactive)	43.1 µM	13.5 µM (inactive)	> 100 µM (inactive)	31.6 µM (inactive)	25.4 µM (inactive)	15 µM (inactive)	> 10 µM (inactive)	20.6 µM (inactive)	54.2 µM (inactive)	55.3 µM (inactive)	22.5 µM (inactive)	23.9 µM (inactive)	36.6 µM (inactive)	36.7 µM (inactive)
CCC(C)[C@@H]1NC(=O)[C@@H]2CCCN2C(=O)C(CC(O)CO)OC(=O)CCNC(=O)[C@H](C)N(C)C(=O)[C@H](C(C)C)N(C)C1=O (stereo partly specified) (cyclo([Ile(3ξ)][NMeV][NMeA][βAla][X24]P))	> 100 µM (inactive)	35.8 µM (inactive)	> 100 µM	> 100 µM (inactive)	> 100 µM (inactive)	> 100 µM (inactive)	> 100 µM (inactive)	84.5 µM (inactive)		> 100 µM (inactive)	> 100 µM (inactive)	> 100 µM (inactive)	> 100 µM (inactive)	> 100 µM (inactive)	> 100 µM (inactive)	> 100 µM (inactive)
